Where “and” joins values, the source holds several entries; their conditions need not be identical. Identical values can stand only once. Entries after “also recorded” stand apart in the source; their conditions may differ.
Tests used:
Format in all cases: in vivo
rat heart [1] = assay: Ventricular arrhythmias during FPO, Lown classification and VPB score
rat heart [2] = assay: Infarct size by TTC staining after 90 minutes of LAD occlusion; details: for Infarct size: 90 min LAD occlusion, percentage of the area of the left ventricle
rat heart [3] = assay: ST segment elevation (ECG) during final permanent LAD occlusion (FPO), rat repetitive ischemia protocol (RIP) arteriogenesis model

## CC(=O)Oc1ccccc1C(=O)O [ASA+NTG-PLACEBO, acetyl salicylic acid]
Rat heart [1]; 5 DAYS RIP, during FPO
  rats with class IIIa arrhythmias: 16.7%
  rats with class IVb arrhythmias: 83.3%
Rat heart [1]; RIP (Modules 2-4)
  VPB-Score: 5.50
Rat heart [2]; 5 DAYS RIP
  Infarct size: 13.92±1.71%
Rat heart [2]; 5 DAYS RIP, listed as NTG-PLACEBO+ASS
  Infarct size: 13.92±1.71%
Rat heart [3]; 5 DAYS RIP, after FPO
  ST segment elevation: 0.144±0.091 mV

## CC(=O)Oc1ccccc1C(=O)O [ASA+PBS, acetyl salicylic acid]
Rat heart [1]; 5 DAYS RIP, during FPO
  arrhythmias / VPB-Score compared to controls (in words): higher compared to the controls
Rat heart [2]; 5 DAYS RIP
  Infarct size: 12.51±3.05%
Rat heart [2]; 5 DAYS RIP, listed as ASA
  infarct size compared to controls (in words): increase of infarct volumes
Rat heart [2]; 5 DAYS RIP, listed as ASS+PBS
  infarct size compared to controls (in words): minimally increased
Rat heart [3]; 5 DAYS RIP, after FPO
  ST segment elevation compared to controls (in words): higher compared to the PBS control group, but there is no significance

## O=[N+]([O-])O[C@H]1CO[C@H]2[C@@H]1OC[C@H]2O[N+](=O)[O-] [ISDN, isosorbide dinitrate]
Rat heart [1]; rat, in vivo
  arrhythmias / VPB-Score compared to controls (in words): less arrhythmias
Rat heart [2]; rat, in vivo
  infarct size compared to controls (in words): smaller compared to controls (treated with PBS or ISDN-Placebo), but there is no significance; also recorded: smaller; also recorded: reduced infarct volumes
Rat heart [3]; rat, in vivo
  ST segment elevation compared to controls (in words): lower ST segment elevation course; also recorded: decreased compared to the PBS group but there is no significance; also recorded: non-significantly decreased; also recorded: decreases in ST elevation

## O=[N+]([O-])OCC(CO[N+](=O)[O-])O[N+](=O)[O-] [NTG, nitroglycerin]
Rat heart [1]; rat, in vivo
  VPB-Score: 5.77 and 3.60
  arrhythmias / VPB-Score compared to controls (in words): more often scaled into grade 0; also recorded: reduced arrhythmias; also recorded: decreased serious arrhythmias
  rats with class 0 arrhythmias: 57.1%
  rats with class IIIa arrhythmias: 14.3%
  rats with class IVb arrhythmias: 85.7% and 42.9%
Rat heart [2]; rat, in vivo
  decrease of infarct volume compared to the control group: more than 50%
  infarct size compared to controls (in words): significantly smaller infarct area; also recorded: decreases the size of an experimentally induced myocardial infarct
Rat heart [3]; rat, in vivo
  ST segment elevation compared to controls (in words): lower ST segment elevation course; also recorded: significantly decreased; also recorded: significantly attenuated ST elevation

Source: patent publication US20140057977A1, “Induction of Arteriogenesis” (G. Pohl-Boskamp GmbH & Co. KG, priority 2012, published 2014)
